From patent US10836732B2, “Compounds for combating arthropods” (priority 2013, dated 2020)

Assays:
Ctenocephalides felis [1] = test: Ctenocephalides felis - in vitro contact tests with adult cat fleas; type: in vivo; settings: 5 μg/cm^2, adult cat fleas, after 48 h
Protocol: For the coating of the test tubes, 9 mg of active ingredient are first dissolved in 1 ml of acetone p.a. and then diluted to the desired concentration with acetone p.a. 250 μl of the solution are distributed homogeneously on the inner walls and base of a 25 ml test tube by turning and rocking on an orbital shaker (rocking rotation at 30 rpm for 2 h). With 900 ppm active ingredient solution and internal surface area 44.7 cm^2, given homogeneous distribution, an area-based dose of 5 μg/cm^2 is achieved.
After the solvent has evaporated off, the tubes are populated with 5-10 adult cat fleas (Ctenocephalides felis), sealed with a perforated plastic lid and incubated in a horizontal position at room temperature and ambient humidity. After 48 h, efficacy is determined. To this end, the test tubes are stood upright and the fleas are knocked to the base of the tube. Fleas which remain motionless at the base or move in an uncoordinated manner are considered to be dead or moribund.
100% efficacy means that all the fleas were dead or moribund. 0% efficacy means that no fleas were harmed.

Ctenocephalides felis [2] = test: Ctenocephalides felis - in vitro contact tests with fleas (CTECFE); type: in vivo; settings: 1 μg/cm^2, adult fleas, after 48 h
Protocol: (§1) For the coating of the test tubes, 9 mg of active ingredient are first dissolved in 1 ml of acetone p.a. and then diluted to the desired concentration with acetone p.a. 250 μl of the solution are distributed homogeneously on the inner walls and base of a test tube (25 ml crimp top vial (Fisher Scientific, Order No. 320 55 60) by turning and rocking on a “Rock ‘n’ Roller” (Model L202, Labinco; rocking rotation at 30 rpm in a fume hood for 2 h). With 900 ppm active ingredient solution and internal surface area 44.7 cm^2, given homogeneous distribution, an area-based dose of 5 μg/cm^2 is achieved.
Preparation examples for the inventive halogen-substituted compounds of the formula (I) are tested for their contact efficiency with ectoparasitic insects (cat fleas here). For this purpose, crimp top vials are coated with 250 μl of an acetone solution of the active ingredient as described above. After the solvent has evaporated off, the tubes are populated with 5-10 fleas (adult Ctenocephalides felis), sealed with a perforated plastic lid and incubated in a horizontal position at room temperature and ambient humidity. After 48 h, efficacy (knockdown and mortality) and mortality are determined To this end, the test tubes are stood upright and the fleas are knocked to the base of the tube. […]

Lucilia cuprina = Lucilia cuprina test (LUCICU); type: in vivo; settings: 20 ppm, L1 larvae, after 2 days
Protocol: (§2) Solvent: dimethyl sulphoxide
(§3) To produce an appropriate active ingredient formulation, 10 mg of active ingredient are mixed with 0.5 ml of dimethyl sulphoxide, and the concentrate is diluted with water to the desired concentration.
About 20 L1 larvae of the Australian sheep blowfly (Lucilia cuprina) are transferred into a test vessel containing minced horsemeat and the active ingredient preparation of the desired concentration.
After 2 days, the kill in % is determined 100% means that all the larvae have been killed; 0% means that none of the larvae have been killed.

Musca domestica = Musca domestica test (MUSCDO); type: in vivo; settings: 20 ppm, adult houseflies, after 2 days
Protocol: as §2, §3
Vessels containing a sponge treated with sugar solution and the active ingredient formulation of the desired concentration are populated with 10 adult houseflies (Musca domestica).
After 2 days, the kill in % is determined 100% means that all of the flies have been killed or knocked down; 0% means that none of the flies have been killed or knocked down.

Phaedon cochleariae = Phaedon cochleariae - spray test; type: in vivo; settings: 100 g/ha, Chinese cabbage leaf discs, after 7 days
Protocol: Solvent: 78.0 parts by weight of acetone
(§4) • 1.5 parts by weight of dimethylformamide Emulsifier: alkylaryl polyglycol ether
(§5) To produce an appropriate active ingredient formulation, 1 part by weight of active ingredient is dissolved using the specified parts by weight of solvent and made up with water containing an emulsifier concentration of 1000 ppm until the desired concentration is attained. To produce further test concentrations, the preparation is diluted with emulsifier-containing water.
Discs of Chinese cabbage leaves (Brassica pekinensis) are sprayed with an active ingredient formulation of the desired concentration and, after drying, populated with larvae of the mustard beetle (Phaedon cochleariae).
After 7 days, efficacy in % is determined 100% means that all the beetle larvae have been killed; 0% means that no beetle larvae have been killed.

Myzus persicae = Myzus persicae - spray test; type: in vivo; settings: 100 g/ha, Chinese cabbage leaf discs, after 6 days
Protocol: Solvent: 78 parts by weight of acetone
as §4, §5
Discs of Chinese cabbage leaves (Brassica pekinensis) infested by all stages of the green peach aphid (Myzus persicae) are sprayed with an active ingredient formulation of the desired concentration.
After 6 days, efficacy in % is determined. 100% means that all the aphids have been killed; 0% means that none of the aphids have been killed.

[3] = logP by HPLC on reversed-phase column (C18), EEC Directive 79/831 Annex V.A8; type: physicochemical; settings: HPLC, reversed-phase C18, acetonitrile (0.1% formic acid)/water (0.09% formic acid) gradient
Rhipicephalus sanguineus = Rhipicephalus sanguineus - in vitro contact tests with brown dog ticks (RHIPSA); type: in vivo; settings: 1 μg/cm^2, adult ticks, after 48 h
Protocol: as §1
Preparation examples for the inventive halogen-substituted compounds of the formula (I) are tested for their contact efficiency with ectoparasitic arachnids (brown dog ticks here). For this purpose, crimp top vials are coated with 250 μl of an acetone solution of the active ingredient as described above. […] After 48 h, efficacy (knockdown and mortality) and mortality are determined To this end, the ticks are knocked to the floor of the tube and incubated on a hotplate at 45-50° C. for not more than 5 min Ticks which remain motionless on the floor or move in such an uncoordinated manner that they are unable to deliberately avoid the heat by climbing upwards are considered to be dead or knocked down (moribund).

[4] = test system: Aedes aegypti strain MONHEIM; test: Aedes test (AEDSAE surface treatment); type: in vivo; settings: read-out: efficacy (mortality in %)
Protocol: Solvent: acetone+2000 ppm rapeseed oil methyl ester (RME)
To produce an appropriate active ingredient formulation, the active ingredient is dissolved in the solvent (2 mg/ml). The active ingredient formulation is pipetted onto a glazed tile and, after it has dried off, adult mosquitoes of the species Aedes aegypti strain MONHEIM are placed onto the treated tile. The exposure time is 30 minutes.
24 hours after contact with the treated surface, mortality in % is determined 100% means that all mosquitoes have been killed; 0% means that none of the mosquitoes have been killed.

Cc1cc(C(F)(C(F)(F)F)C(F)(F)F)cc(C)c1-c1cn(-c2ccc(Cl)c(C(=O)NC3CC3)c2)nn1 [I-T48-1, 2-chloro-N-cyclopropyl-5-[4-[2,6-dimethyl-4-[1,2,2,2-tetrafluoro-1-(trifluoromethyl)ethyl]phenyl]triazol-1-yl]benzamide]
efficacy (dead or moribund) (Ctenocephalides felis [1]): 100% | efficacy (moribund/knocked down or dead) (Ctenocephalides felis [2]): 100% | efficacy (kill in %) (Lucilia cuprina): 100% | efficacy (killed or knocked down) (Musca domestica): 100% | efficacy (beetle larvae killed) (Phaedon cochleariae): 100% | efficacy (aphids killed) (Myzus persicae): 100% | chromatographic logP [3]: 4.19 | efficacy (dead or knocked down) (Rhipicephalus sanguineus): 100% | mortality at 20 mg/m2 [4]: 90 to 100% | mortality at 100 mg/m2 [4]: 90 to 100%
